The source of these data is paper PMC3306999 (Journal of Toxicology, 2012).

Read-outs that look alike come from different tables or passages of the source.

The target in data set [1] is T1, MAO-B (Rattus norvegicus, UniProt P19643).
T1 construct: from tissue; host or cells: rat cerebellum homogenate (dams and PD21 offspring)
The data set is described as follows: Cerebellar MAO-B activity (radiochemical, 14C-PEA) after perinatal exposure. Format: in vivo. Particulars: for decrease of cerebellar MAO-B activity: male pups PD21, maternal oral MeHg 1 mg/kg/day GD7-PND7 and/or PCB153 20 mg/kg/day GD10–GD16, vs control 19.26 ± 2.05 nmol/mg protein/h. The protocol:
(§1) The experimental regimen comprises 0.5 and 1 mg MeHg/kg (body weight) bw/day, administered to rat dams in the drinking water from gestational day (GD)7 to postnatal (PD)7, and/or PCB153 (20 mg/kg/day) dissolved in corn oil, administered to rats from GD10 to GD16.
(§2) The endpoints investigated in rats included total cholinergic MRs and MAO-B activity in cerebellum and total MRs in lymphocytes at weaning (i.e., PD21) both in dams and their offspring.
(§3) At the day of sacrifice, rat brains were rapidly dissected on ice to isolate cerebellum from dams and offspring and stored at −80°C until the analyses were performed. Spleens were also collected.
(ii) MAO-B activity was determined radiochemically as described by Young et al., 1986 [71] using 10 μM ^14C-PEA as the substrate. Specific MAO-B activity was determined in the presence of 100 μM pargyline hydrochloride. The reaction was started by addition of ^14C-PEA to 50 μL of tissue homogenate (0.2 mL final volume) and stopped by addition of 0.1 mL citric acid 2 M after a 15-min incubation at 37°C. Deaminated reaction products were extracted into 3 mL toluene-ethylacetate (1 : 1, v/v) and the radioactivity contained in a 1-mL aliquot of the organic phase was counted in scintillation counter. The enzyme activity was expressed as nmol/mg protein/h.

Data set [2] concerns cholinergic muscarinic receptors (MRs). Format: in vivo, rat. Particulars: for increase of cerebellar MRs density (Bmax): MeHg 1 mg/kg/day GD7-PND7; for effect on cerebellar dissociation constant (Kd) of [3H]QNB: rat, in vivo.
Data set [3] concerns the target cholinergic muscarinic receptors (MRs) in lymphocytes. The data set is described as follows: Spleen lymphocyte MR density and affinity after perinatal exposure. Format: in vivo, rat. On the procedure:
as §1, §2, §3
(i) Rat lymphocytes were obtained from the spleen of controls and differently treated animals. MR density and affinity in rat lymphocytes were determined as described in [52].

Data set [4] is classed as in vivo, rat. The protocol: as §1
Measurements of total Hg in cerebellum and blood also complemented the molecular studies to correlate neurochemical changes with the internal doses (see methods in [43, 52, 73]).

The format of data set [5] is in vivo, rat. Conditions: MeHg 1 mg/kg/day; whole brain.
Data set [6] deals with MAO-B. Particulars: St. Lawrence River (Lake St. Pierre, Quebec) fish-eating population; ref Stamler et al. 2006 [68]; cited from earlier work.
The mark [7] stands for this setting: 21-day-old, same treatments, mean ± S.D.

T1 sequence (P19643 whole entry): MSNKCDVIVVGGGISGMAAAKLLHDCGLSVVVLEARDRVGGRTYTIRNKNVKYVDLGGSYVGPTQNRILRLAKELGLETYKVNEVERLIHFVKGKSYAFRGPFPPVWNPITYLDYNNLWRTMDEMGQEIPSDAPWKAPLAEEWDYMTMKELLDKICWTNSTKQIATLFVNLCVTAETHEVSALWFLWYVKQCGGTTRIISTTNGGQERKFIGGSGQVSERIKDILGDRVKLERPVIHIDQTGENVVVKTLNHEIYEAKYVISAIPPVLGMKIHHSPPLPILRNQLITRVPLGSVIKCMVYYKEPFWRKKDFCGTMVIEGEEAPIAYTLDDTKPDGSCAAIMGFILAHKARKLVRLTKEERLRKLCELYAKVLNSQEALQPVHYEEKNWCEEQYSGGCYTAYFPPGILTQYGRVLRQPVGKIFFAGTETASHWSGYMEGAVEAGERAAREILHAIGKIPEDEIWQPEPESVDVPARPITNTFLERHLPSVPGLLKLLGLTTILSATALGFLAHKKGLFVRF

`[CH3][Hg][Cl]` [MeHg, methylmercury]: the “effect on MAO-B activity” value at MAO-B [1] (lower MeHg dose 0.5 mg/kg/day GD7-PND7, male and female offspring) is “no effects”. The “decrease of cerebellar MAO-B activity” value at MAO-B [1] was 35%. Besides, the “increase of cerebellar MRs density (Bmax)” value in data set [2] (dams, PD21) was 87%. In addition, in data set [2] (lower MeHg dose 0.5 mg/kg/day alone or in combination with PCB153, mother and offspring), the “effect on cerebellar MR density” value is “did not cause any change”. The “increase of cerebellar MRs density (Bmax)” value in data set [2] (male pups PD21) stood at 27%. For the same molecule, the “effect on cerebellar dissociation constant (Kd) of [3H]QNB” value in data set [2] was “did not affect”. Moreover, in data set [3] (MeHg 1 mg/kg/day, dams and offspring), the “effect on lymphocyte Kd values” is “absence of any change”. Besides, the “increase of lymphocyte MR density (Bmax)” value in data set [3] (dams, MeHg 1 mg/kg/day GD7-PND7, vs control 33 ± 4 fmol/million cells) was 139%. Also, the “increase of lymphocyte MR density (Bmax)” value in data set [3] (female offspring 21 days old, MeHg 1 mg/kg/day, vs control 37 ± 4 fmol/million cells) stood at 73%. Also, in data set [3] (lower MeHg dose 0.5 mg/kg/day), the “effect on lymphocyte Kd values” is “devoid of any effect”. In addition, the “effect on lymphocyte MR density” value in data set [3] (lower MeHg dose 0.5 mg/kg/day, all groups, day 21 postpartum) is listed as “did not significantly differ”. Moreover, the “increase of lymphocyte MR density (Bmax)” value in data set [3] (male offspring 21 days old, MeHg 1 mg/kg/day, vs control 41 ± 8 fmol/million cells) is listed as 49%. For the same molecule, the “Blood Hg, Dams” value in data set [4] (1 mg MeHg/kg bw/day GD7-PD7 and/or 20 mg PCB153/kg bw/day GD10–GD16, mean ± S.D.) worked out at 11.33 ± 2.26 n = 4 μg/ml. Besides, in data set [4] (setting [7]), the “Blood Hg, Offspring Female” value came out at 1.31 ± 0.40 n = 4 μg/ml; the “Blood Hg, Offspring Male” value is listed as 1.35 ± 0.40 n = 4 μg/ml; the “Brain Hg, Offspring Female” value was determined as 1.52 ± 0.33 n = 4 μg/g; the “Brain Hg, Offspring Male” value stood at 1.67 ± 0.43 n = 4 μg/g. Also, in data set [4] (perinatal 1 mg MeHg/kg/day), the “Hg in rat blood at PD21” value is 1300 ppb and the “cerebral Hg levels in weaning rats” value is listed as 1.5–2.8 ppm. Further, the “blood Hg levels in weaning rats” value in data set [4] (perinatal 1 mg MeHg/kg/day, both pup genders) was 1.3 ± 0.4 µg/mL. Besides, in data set [4] (pups, both genders, MeHg 1 mg/kg/day), the “Hg levels in pup blood” value is on record as 1.35 ± 0.4 mg/L. In data set [4] (same treatments), the “Brain Hg, Dams” value is 7.53 µg/g. Also, in data set [5], the “brain Hg concentration, mother versus offspring” value is “about five-fold higher”. Moreover, the “blood-Hg concentrations associated with MeHg-induced reduction in MAO-B activity” value in the data set with MAO-B [6] was “above 3.4 μg/L”.
Take `Clc1cc(Cl)c(-c2cc(Cl)c(Cl)cc2Cl)cc1Cl` [PCB153, 2,2′,4,4′,5,5′-hexachlorobiphenyl]: at MAO-B [1], the “decrease of cerebellar MAO-B activity” value amounted to 45%. The “effect on cerebellar MRs density” value in data set [2] (adult and offspring PD21, PCB153 20 mg/kg/day GD10–GD16 alone or with MeHg 1 mg/kg/day) is “did not modify”. Besides, in data set [2], the “effect on cerebellar dissociation constant (Kd) of [3H]QNB” value is listed as “did not affect”. The “effect of PCB153 coexposure on brain Hg concentrations” value in data set [4] (MeHg 1 mg/kg/day + PCB153) is given as “not affected”.
